Experimental data: article PMC5356834 (Oncotarget, 2016)

Assays:
TOV-21G cells [1] = assay: Multipolar mitotic spindle scoring by NuMA and α-tubulin co-staining; type: cell-based; details: 24 hours
From the text: (§1) (B) The frequency of mitotic cells with multipolar spindles was scored in at least 50 cells from each treatment condition. Shown is the mean ± SD of three independent experiments. […] Microtubules and DNA were visualized by staining with anti-α-tubulin antibody (green) and DAPI (blue), respectively. The frequency of interphase cells with visually abnormal nuclei, including satellite nuclei and multinucleation, was scored in at least 100 cells per treatment condition. Shown is the mean ± SD of three independent experiments.
(§2) Cells grown on glass coverslips were fixed in 4% paraformaldehyde for 15 min, followed by permeabilization with 0.5% Triton X-100 in PBS for 5 min. The cells were then incubated with α-tubulin (DM1A) mouse monoclonal antibody (Cell Signaling Technology, Danvers, MA), γ-tubulin (GTU-88) mouse monoclonal antibody (Sigma-Aldrich, St. Louis, MO) or NuMA (GT3611) mouse monoclonal antibody (Thermo Scientific, Rockford, IL) followed by Alexa Fluor 488 or 546 conjugated secondary antibodies (Invitrogen, Carlsbad, CA). Images were obtained with a Zeiss AX10 microscope (Carl Zeiss Micro-Imaging, Inc., Jena, Germany) equipped with a 20 X, 40X, or 63 X objective and standard filter set.
(A) Immunostaining for α-tubulin (green), NuMA
(red), and DNA (blue). (B) The frequency of mitotic cells with multipolar spindles was scored in at least 100 cells from each treatment
(§3) (1 picture or pasted object on this page, not shown here)

[2] = system: MDA-MB-231 breast cancer cells; assay: IncuCyte live-cell proliferation assay; type: cell-based; details: for proliferation (absolute cell number): MDA-MB-231, single agent
TOV-21G cells [3] = assay: Live cell time-lapse imaging of cell division; type: cell-based; details: ACY-241 2 μM plus paclitaxel 5 nM, up to 48 hours
Procedure: Time-lapse imaging was obtained on a Zeiss AX10 live-cell microscope coupled with a CO2 and temperature-maintenance system, and a time-lapse recording system supporting multi-location time series acquisition (SlideBook6 x64, Intelligent Imaging Innovations, Inc., Ringsby, CT). After staining with 10 nM Hoechst33342, TOV-21G cells were incubated in 10% CO2 at 37°C and time-lapse images were acquired at 2 min intervals up to 48 hours with a CoolSNAP HQ2 CCD camera (Photometrics, Tucson, AZ). […]
monitored by live cell time-lapse microscopy. (A) The number of observed mitotic cells, unresolved mitoses, and frequency of bipolar and multipolar division from resolved mitosis were assessed. (B) Fluorescent and matched phase-contrast time-lapse images of representative mitoses in TOV-21G cells treated with the drug combination. Numbers show elapsed time after drug treatment (hour:minute:second), the color of circles differentiates individual cells being monitored, and dashed circles indicate observation of cell death. Panels labeled with lower case letters (a-e) identify timepoints with matched phase contrast images below (a’-e’).
as §3

[4] = Tolerability and body weight in xenograft-bearing mice; details: for body weight change: MiaPaCa-2 model, combination treatment with paclitaxel; for tolerability in mice: dosed as a single agent and in combination with paclitaxel
[5] = system: histone H3 acetylation in A2780 ovarian cancer cells; assay: Immunoblotting of acetylated histone H3 (H3K56) in A2780 cells; type: cell-based; details: 24 hour treatment
Procedure: (§4) Lysates were sonicated 2 to 3 times for 30 sec in medium (Diagenode, Bioruptor 300).
(§5) For western blot analysis, equal amounts of protein were loaded and size separated on Bolt™ 4 to 12% Bis-Tris Plus Gels. Proteins were subsequently transferred onto polyvinylidene difluoride (PVDF) membrane using an iBlot® 2 Dry Blotting System (Invitrogen). Immunoblotting was carried out according to standard protocols with antibodies against histone H3 acetyl-lysine 56 (abcam), histone-H4, pantropic (Millipore), acetyl-α-tubulin (Sigma); and β-Actin (Sigma). Antigen-antibody complexes were detected using secondary antibodies conjugated with horseradish […] (HRP) and visualized using enhanced chemiluminescence (GE Healthcare; Piscataway, NJ).

TOV-21G cells [6] = assay: Scoring of interphase cells with abnormal nuclei; type: cell-based; details: 48 hours
From the text: as §1, §2

[7] = system: phospho-histone H3 (pH3) positive cells; assay: Phospho-histone H3 / DNA content flow cytometry for M phase cells; type: cell-based; details: for pH3 positive cells (M phase): low dose 6 nM
Procedure: arrest. (A) Dual parameter phospho-histone H3 (y axis, M phase cells) and FxCycle Far Red (x axis, DNA content) staining indicate the […]
High dose treatment of paclitaxel (100 nM) served as a positive control for M phase arrest. (B) Phase contrast micrographs were taken at the indicated time points after treatment of the samples in panel (A).
as §3

[8] = system: α-tubulin acetylation in A2780 ovarian cancer cells; assay: Immunoblotting of acetylated α-tubulin in A2780 cells; type: cell-based
Procedure: as §4, §5

[9] = system: A2780, TOV-21G and MDA-MB-231 cells; assay: MTS cell viability assay; type: cell-based; details: 72 h, range over A2780, TOV-21G and MDA-MB-231 cells, 3 days, read-out: single agent viability IC50
Procedure: CellTiter 96® AQueous One Solution; Promega; Madison, WI, USA) dye absorbance. Cells (A2780, TOV-21G, MDA-MB-231) from 72 hour cultures were pulsed with 5 μL of CellTiter 96® AQueous One Solution in each well. The 384-well plates were incubated at 37°C for 5 hours, and absorbance was read in triplicate at a wavelength of 490 nm (with background correction using readings at 650 nm) on a spectrophotometer (Molecular Devices Corp.; Sunnyvale, CA, USA). […] The IC50 for each agent in each cell line is indicated in the legend of each graph. Real-time kinetic trace graphs of (C) cell proliferation and (D) induction of apoptosis were generated in the MDA- MB-231 breast cancer cell line. […] The mean and SEM of three replicate samples are shown. […]

MiaPaCa-2 xenografts = assay: MiaPaCa-2 pancreatic cancer xenograft; type: in vivo, mice; details: MiaPaCa-2 xenograft, HDAC6 inhibitor 50 mg/kg IP plus paclitaxel 10 mg/kg
[10] = system: TOV-21G ovarian cancer cells; assay: Multipolar mitotic spindle scoring by α-tubulin staining; type: cell-based; details: 24 hours; for frequency of multipolar spindle formation, combination with paclitaxel: HDAC6 inhibitor 2 μM plus paclitaxel 2 nM; for frequency of multipolar mitotic spindle formation, single agent: paclitaxel 2 nM, ACY-241 2 μM, ACY-1215 2 μM, control 3.1%
Procedure: as §2
for α-tubulin (red) and DNA (blue) identified mitotic cells with multipolar spindles. (B) The frequency of multipolar spindle formation in
M phase cells was scored in at least 50 cells per treatment condition.
as §3

[11] = system: A2780, TOV-21G and MiaPaCa-2 cells; assay: EdU / FxCycle flow cytometry cell cycle assessment in multiple cell lines (Figure 4B, 4C); type: cell-based
[12] = system: MDA-MB-231 breast cancer cells; assay: IncuCyte Caspase 3/7 apoptosis assay; type: cell-based; details: for apoptosis (Caspase 3/7): MDA-MB-231, single agent
[13] = system: α-tubulin acetylation in A2780 and MDA-MB-231 cells; assay: Immunoblotting of acetylated α-tubulin after combination treatment; type: cell-based; details: 48 hours
Procedure: A2780 and MDA-MB-231 cells were treated for 48 hours with the indicated concentrations of each drug and whole cell protein lysates were subjected to immunoblotting using antibodies for acetylated-α-tubulin and β-actin.
as §4, §5
For WES analysis, lysates were separated by an automated capillary-based electrophoresis system (WES, ProteinSimple, San Jose, CA). All procedures were performed according to the manufacturer's recommendations using the supplied reagents. […] The resulting data were analyzed using Compass software (ProteinSimple).

TOV-21G xenografts = assay: TOV-21G ovarian cancer xenograft; type: in vivo, mice; details: TOV-21G xenograft, HDAC6 inhibitor 50 mg/kg IP plus paclitaxel 10 mg/kg
A2780 xenografts = assay: A2780 ovarian cancer xenograft; type: in vivo, mice; details: HDAC6 inhibitor 50 mg/kg IP plus paclitaxel 10 mg/kg
[14] = MDA-MB-231, relative to either single agent

With `O=C(CCCCCCNC(=O)c1cnc(N(c2ccccc2)c2ccccc2Cl)nc1)NO` [ACY-241] the “frequency of multipolar spindle formation, combination with paclitaxel” value (TOV-21G cells [1]; NuMA/α-tubulin co-staining, p = 0.0047 vs paclitaxel) was 51.5%, the “frequency of multipolar spindle formation, combination with epothilone” value (TOV-21G cells [1]; epothilone 0.5 nM plus ACY-241) was 51.3% and the “proliferation, combination with paclitaxel” value [2, 14] was “significantly reduced proliferation”. For the same compound, the “proliferation (absolute cell number)” value ([2]; 10 μM) was “completely suppressed proliferation”, the “proliferation (absolute cell number)” value ([2]; doses up to 3 μM, 96 hours) was “modestly reduced proliferation” and the “frequency of multipolar cell division, combination with paclitaxel” value (TOV-21G cells [3]) was “increased the frequency of multipolar cell division compared to each single agent”. The body weight change [4] was “did not result in body weight loss”, the tolerability in mice [4] was “well tolerated” and the “doses at which hyperacetylation of histone H3 was observed” value [5] was “above 1 μM”. The “frequency of cells with visually abnormal nuclei, combination with paclitaxel” value (TOV-21G cells [6]) was “significantly increased the frequency of cells with visually abnormal nuclei”, the M phase arrest ([7]; 2 μM, single agent or in combination with paclitaxel) was “did not significantly increase M phase arrest” and the “hyperacetylation of α-tubulin” value ([8]; 24 hour treatment, 300 nM) was “increased hyperacetylation of α-tubulin”. For the same compound, the “α-tubulin hyperacetylation, dose dependence” value ([8]; range of concentrations, 24 hours) was “dose-dependent increase in α-tubulin hyperacetylation”, the IC50 [9] was 4600 to 6100 nM and the “suppression of tumor growth, combination with paclitaxel” value (“suppression of tumor growth” below) (MiaPaCa-2 xenografts) was “similarly significant efficacy”. The “frequency of multipolar spindle formation, combination with paclitaxel” value [10] was 38.6%, the “frequency of multipolar mitotic spindle formation, single agent” value [10] was 10.7% and the “percentage of cells in S phase, combination with paclitaxel” value ([11]; A2780 and TOV-21G (3 days), MiaPaCa-2 (5 days)) was “significantly reduced the percentage of cells in S phase”. The “induction of cell death (SubG1), combination with paclitaxel” value ([11]; relative to control or single agent treatment) was “significantly increased induction of cell death”, the “apoptosis, combination with paclitaxel” value [12, 14] was “enhanced apoptosis” and the “apoptosis (Caspase 3/7)” value ([12]; 10 μM) was “significant induction of apoptosis”. For the same compound, the “apoptosis (Caspase 3/7)” value ([12]; doses up to 3 μM, 96 hours) was “without inducing apoptosis” and the “α-tubulin hyperacetylation, combination with paclitaxel” value [13] was “synergistic increase in α-tubulin hyperacetylation”.

With `C/C(=C\c1csc(C)n1)[C@@H]1C[C@@H]2O[C@]2(C)CCC[C@H](C)[C@H](O)[C@@H](C)C(=O)C(C)(C)[C@@H](O)CC(=O)O1` [epothilone, epothilone B, reference compound] the “frequency of multipolar mitotic spindle formation, single agent” value (TOV-21G cells [1]; 0.5 nM, control 0.9%) was 29.9%.

With `CC(=O)O[C@H]1C(=O)[C@@]2(C)[C@H]([C@H](OC(=O)c3ccccc3)[C@]3(O)C[C@H](OC(=O)[C@H](O)[C@@H](NC(=O)c4ccccc4)c4ccccc4)C(C)=C1C3(C)C)[C@]1(OC(C)=O)CO[C@@H]1C[C@@H]2O` [paclitaxel, reference compound] the “frequency of multipolar spindle formation, single agent” value (TOV-21G cells [1]; NuMA/α-tubulin co-staining (Figure 6B)) was 30.4%, the “proliferation (absolute cell number)” value ([2]; up to 2 nM) was “modestly reduced cell proliferation” and the “cell cycle arrest at M phase” value ([7]; high concentration 100 nM, 8 to 24 hours) was “induced cell cycle arrest at mitosis (M) phase”. The “pH3 positive cells (M phase)” value ([7]; 8 hours, DMSO […]) was 14%, the “pH3 positive cells (M phase)” value ([7]; 24 hours) was 4.1% and the IC50 [9] was 2.3 to 3.2 nM. For the same compound, the “frequency of multipolar mitotic spindle formation, single agent” value [10] was 15.2% and the “apoptosis (Caspase 3/7)” value ([12]; up to 2 nM) was “did induce apoptosis after longer duration of exposure”.

With `O=C(CCCCCCNC(=O)c1cnc(N(c2ccccc2)c2ccccc2)nc1)NO` [ricolinostat] the body weight change [4] was “did not result in body weight loss”, the tolerability in mice [4] was “well tolerated” and the “suppression of tumor growth” value (MiaPaCa-2 xenografts) was “significantly greater suppression of tumor growth relative to either single agent”. For the same compound, the “frequency of multipolar spindle formation, combination with paclitaxel” value [10] was 41.3%, the “frequency of multipolar mitotic spindle formation, single agent” value [10] was 12.6% and the “suppression of tumor growth” value (TOV-21G xenografts) was “significantly greater suppression of tumor growth relative to either single agent”. The “suppression of tumor growth” value (A2780 xenografts) was “significantly greater suppression of tumor growth relative to either single agent”.
